# Source: patent US9386769B2 (HUNAN RESEARCH INSTITUTE OF CHEMICAL INDUSTRY CO., LTD., priority 2011, dated 2016)
# Read-outs that look alike come from different tables or passages of the source.
# Legend:
# Fusarium oxysporum = experiment: Fungicidal activity against Fusarium oxysporum; type: cell-based; settings: 25 mg/L
# Experimental: (§1) Bioassay method: Stock solution of every test compound was prepared in an appropriate solvent such as N,N-dimethylformamide (DMF), and then diluted to the required test concentrations with sterile water containing 0.1% Tween 80; Pipetted 3 mL of test solution to 27 mL of potato dextrose agar (PDA) medium at 45° C. and poured into a Petri dish to prepare a plate after shaking thoroughly; 6 mm of diameter of fungi cake from the edge of 7-day-old […] colony was inoculated on the central of the plate, wherein mycelium facing down, and cultured in the culture tank at 28° C. The diameter of fungi spread was calculated 4 days later using the control group tested with the diluent only. Test was run 4 times. Data were subjected to EXCEL statistical software analysis and the growth inhibition of the tested compound was calculated according to the corresponding control, the activity was rated on the basis of percentage of growth inhibition using the following rating system: A, inhibition (%)>90; B, 90≧inhibition (%)>70; C, 70≧inhibition (%)>50; D, inhibition (%)≦50.
# Alternaria mali = experiment: Fungicidal activity against Alternaria mali; type: cell-based; settings: 25 mg/L
# Experimental: as §1
# Botrytis cinerea = experiment: Fungicidal activity against Botrytis cinerea, mycelial growth inhibition on PDA plate; type: cell-based; settings: Botrytis cinerea; for inhibition at 2.5 µg/mL: 2.5 mg/L; for inhibition at 5 µg/mL: 5 mg/L
# Experimental: as §1
# Fungicidal activities against Botrytis cinerea of compounds represented by the general formula (I) were evaluated with the corresponding method in Example 18, and some of the test results are shown in Table 6 to Table 8.
# Cercospora arachidicola = experiment: Fungicidal activity against Cercospora arachidicola; type: cell-based; settings: 25 mg/L
# Experimental: as §1
# Aphis fabae = experiment: Insecticidal activity against Aphis fabae, dipping of horsebean seedlings; type: in vivo; settings: 24 h
# Experimental: Bioassay method: Stock solution of every test compound was prepared in an appropriate solvent such as N,N-dimethylformamide, and a small amount of Tween 80 was added as emulsification agent, then diluted to the required test concentrations with distilled water, using the control group tested with distilled water only. More than 20 adults of Aphis fabae were transferred to newly unearthed horsebean seedlings and 24 hr later, horsebean seedlings with Aphis fabae were dipped in the test solution for 5 s, then allowed to dry with filter paper, transplanted to the absorbent sponge and covered with a glass tube, then kept in a room for normal cultivation. Each assay contained three replications, and results were averaged. Mortality was assessed 24 hr after the treatment. The activity was rated to A, B, C or D according to the rating system in Example 22.
# Marssonina coronaria = experiment: Fungicidal activity against Marssonina coronaria; type: cell-based; settings: 25 mg/L
# Experimental: as §1
# Sphaceloma ampelinum = experiment: Fungicidal activity against Sphaceloma ampelinum; type: cell-based; settings: 25 mg/L
# Experimental: as §1
# Alternaria alternata = experiment: Fungicidal activity against Alternaria alternata, mycelial growth inhibition on PDA plate; type: cell-based; settings: Alternaria alternata
# Experimental: as §1
# Fungicidal activities against Alternaria alternata of compounds represented by the general formula (I) were evaluated with the corresponding method in Example 18, and some of the test results are shown in Table 9 to Table 10.
# Alternaria solani = experiment: Fungicidal activity against Alternaria solani; type: cell-based; settings: 25 mg/L
# Experimental: as §1
# Sclerotinia sclerotiorum = experiment: Fungicidal activity against Sclerotinia sclerotiorum, mycelial growth inhibition on PDA plate; type: cell-based; settings: Sclerotinia sclerotiorum; for inhibition at 2.5 µg/mL: 2.5 mg/L; for inhibition at 5 µg/mL: 5 mg/L
# Experimental: as §1
# [1] = system: Alternaria solani, Fusarium oxysporum, Marssonina coronaria, Sphaceloma ampelinum, Apple canker, Cercospora arachidicola and Alternaria mali; experiment: Fungicidal activities against several pathogens (Example 21), comparison with Procymidone; type: cell-based; settings: several pathogens of Example 21
# Experimental: as §1
# [2] = Table 7, read-out: activities against Botrytis cinerea (growth inhibition)
# [3] = Table 8, read-out: activities against Botrytis cinerea (growth inhibition)
# [4] = read-out: activities against Aphis fabae (mortality)
# [5] = Table 4, read-out: activities against Sclerotinia sclerotiorum (growth inhibition)
# [6] = Table 5, read-out: activities against Sclerotinia sclerotiorum (growth inhibition)
smiles,measurement,setting,value
"CCN(Cc1cnc(Cl)s1)c1nc(OC)ccc1[N+](=O)[O-] [Compound 05, 6-methoxy-N-((2-chlorothiazole-5-yl)methyl)-N-ethyl-3-nitropyridin-2-amine]",activity against Fusarium oxysporum,Fusarium oxysporum,38%
same,activity against Alternaria mali,Alternaria mali,82%
same,inhibition at 0.1562 µg/mL,"Botrytis cinerea; 0.1562 mg/L, Table 8, read-out: activities against Botrytis cinerea (growth inhibition)",78%
same,inhibition at 0.3125 µg/mL,"Botrytis cinerea; 0.3125 mg/L, Table 8, read-out: activities against Botrytis cinerea (growth inhibition)",84%
same,inhibition at 0.625 µg/mL,"Botrytis cinerea; 0.625 mg/L, Table 8, read-out: activities against Botrytis cinerea (growth inhibition)",88%
same,inhibition at 1.25 µg/mL,"Botrytis cinerea; 1.25 mg/L, Table 7, read-out: activities against Botrytis cinerea (growth inhibition)",89%
same,inhibition at 1.255 µg/mL,"Botrytis cinerea; 1.255 mg/L, Table 8, read-out: activities against Botrytis cinerea (growth inhibition)",94%
same,inhibition at 2.5 µg/mL,Botrytis cinerea; [2],92%
same,inhibition at 2.5 µg/mL,Botrytis cinerea; [3],98%
same,inhibition at 5 µg/mL,Botrytis cinerea; [2],97%
same,inhibition at 5 µg/mL,Botrytis cinerea; [3],100%
same,inhibition at 10 µg/mL,"Botrytis cinerea; 10 mg/L, Table 7, read-out: activities against Botrytis cinerea (growth inhibition)",100%
same,inhibition at 25 µg/mL,"Botrytis cinerea; 25 mg/L, read-out: activities against Botrytis cinerea (growth inhibition rating)",> 90%
same,activity against Cercospora arachidicola,Cercospora arachidicola,88%
same,mortality at 500 µg/mL,Aphis fabae; read-out: activities against Aphis fabae (mortality rating),> 90%
same,mortality at 6.25 µg/mL,Aphis fabae; [4],12.7%
same,mortality at 25 µg/mL,Aphis fabae; [4],46.5%
same,mortality at 100 µg/mL,Aphis fabae; [4],87.5%
same,activity against Marssonina coronaria,Marssonina coronaria,78%
same,activity against Sphaceloma ampelinum,Sphaceloma ampelinum,93%
same,inhibition at 2.5 µg/mL,"Alternaria alternata; 2.5 mg/L, read-out: activities against Alternaria alternata (growth inhibition)",45%
same,inhibition at 5 µg/mL,"Alternaria alternata; 5 mg/L, read-out: activities against Alternaria alternata (growth inhibition)",75%
same,inhibition at 10 µg/mL,"Alternaria alternata; 10 mg/L, read-out: activities against Alternaria alternata (growth inhibition)",81%
same,inhibition at 25 µg/mL,"Alternaria alternata; 25 mg/L, read-out: activities against Alternaria alternata (growth inhibition rating)",70 to 90%
same,activity against Alternaria solani,Alternaria solani,87%
same,inhibition at 0.1562 µg/mL,"Sclerotinia sclerotiorum; 0.1562 mg/L, Table 5, read-out: activities against Sclerotinia sclerotiorum (growth inhibition)",63%
same,inhibition at 0.3125 µg/mL,"Sclerotinia sclerotiorum; 0.3125 mg/L, Table 5, read-out: activities against Sclerotinia sclerotiorum (growth inhibition)",63%
same,inhibition at 0.625 µg/mL,"Sclerotinia sclerotiorum; 0.625 mg/L, Table 5, read-out: activities against Sclerotinia sclerotiorum (growth inhibition)",68%
same,inhibition at 1.25 µg/mL,"Sclerotinia sclerotiorum; 1.25 mg/L, Table 4, read-out: activities against Sclerotinia sclerotiorum (growth inhibition)",95%
same,inhibition at 1.255 µg/mL,"Sclerotinia sclerotiorum; 1.255 mg/L, Table 5, read-out: activities against Sclerotinia sclerotiorum (growth inhibition)",73%
same,inhibition at 2.5 µg/mL,Sclerotinia sclerotiorum; [5],99%
same,inhibition at 2.5 µg/mL,Sclerotinia sclerotiorum; [6],90%
same,inhibition at 5 µg/mL,Sclerotinia sclerotiorum; [5],100%
same,inhibition at 5 µg/mL,Sclerotinia sclerotiorum; [6],96%
same,inhibition at 10 µg/mL,"Sclerotinia sclerotiorum; 10 mg/L, Table 4, read-out: activities against Sclerotinia sclerotiorum (growth inhibition)",100%
same,inhibition at 25 µg/mL,"Sclerotinia sclerotiorum; 25 mg/L, read-out: activities against Sclerotinia sclerotiorum (growth inhibition rating)",> 90%
same,fungicidal activity compared with the commercial fungicide Procymidone,[1],better than or equal to that of the commercial fungicide Procymidone
